According to PubChem BioAssay (NCI):
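All cell lines were grown in 96-well plates and treated with compound for 48 hours. GI50 marks 50% less growth. At the TGI there is no net growth.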

Key:
Experiment in all cases: DTP human tumour cell line panel, 48 h
786-0 renal = test system: 786-0 renal
HCT-15 colon = test system: HCT-15 colon
HS 578T breast = test system: HS 578T breast
KM12 colon = test system: KM12 colon
MOLT-4 leukemia = test system: MOLT-4 leukemia
NCI-H226 lung = test system: NCI-H226 lung
NCI-H23 lung = test system: NCI-H23 lung
OVCAR-8 ovarian = test system: OVCAR-8 ovarian
SK-OV-3 ovarian = test system: SK-OV-3 ovarian
T-47D breast = test system: T-47D breast

Row | Compound | TGI (786-0 renal) [µM] | GI50 (HCT-15 colon) [nM] | TGI (HCT-15 colon) [µM] | TGI (HS 578T breast) [µM] | TGI (KM12 colon) [µM] | GI50 (MOLT-4 leukemia) [nM] | TGI (MOLT-4 leukemia) [µM] | TGI (NCI-H226 lung) [µM] | GI50 (NCI-H23 lung) [nM] | TGI (NCI-H23 lung) [µM] | GI50 (OVCAR-8 ovarian) [nM] | TGI (OVCAR-8 ovarian) [µM] | TGI (SK-OV-3 ovarian) [µM] | GI50 (T-47D breast) [nM] | TGI (T-47D breast) [µM] | GI50 (786-0 renal) [nM] | GI50 (HS 578T breast) [nM] | GI50 (KM12 colon) [nM] | GI50 (NCI-H226 lung) [nM] | GI50 (SK-OV-3 ovarian) [nM]
1 | CC1OC(O[C@H]2/C=C/C=C/C=C/C=C/C=C/C=C/C=C/[C@H](C)[C@@H](O)[C@@H](C)[C@H](C)OC(=O)C[C@H](O)C[C@H](O)CC[C@@H](O)[C@H](O)C[C@H](O)C[C@]3(O)C[C@H](O)[C@@H](C(=O)O)[C@H](C2)O3)C(O)C(N)C1O (some centres undefined) | 29.2 | 44700 | 60.9 | 27.7 | 42.6 | 29200 | 75.4 | > 100 | 14300 | 34.5 | 33000 | 57.6 | 70.1 | 52300 | > 86.8 | – | – | – | – | –
2 | O=C1c2cccc3cc([N+](=O)[O-])cc(c23)C(=O)N1CCN1CCCC1 | 1.2 | 334 | – | 5.36 | 9.02 | 237 | > 100 | 0.632 | 466 | 4.3 | 566 | 4.38 | 1.11 | 302 | 2.28 | 280 | 1080 | 551 | 193 | 252
3 | N#C/C(=C/C=C/c1ccccc1)S(=O)c1ccccc1 (centres undefined) | 1.36 | 211 | 0.638 | 39.8 | 2.17 | 338 | 3.64 | 5.88 | 461 | 2.31 | 338 | 1.73 | 10.9 | 298 | 5.62 | 322 | 2950 | 594 | 1920 | 2500
4 | COc1ccc(C(=O)C(Br)C(Br)C(=O)O)cc1 (centres undefined) | 97.6 | – | > 100 | > 100 | > 100 | – | 36.1 | > 100 | – | > 100 | – | > 100 | > 100 | – | > 100 | – | – | – | – | –
5 | CNC(=O)c1cncc(/C=C/c2c(C)cccc2C)c1 | > 25 | > 25000 | > 25 | 24.2 | > 25 | > 25000 | > 25 | > 25 | > 25000 | > 25 | > 25000 | > 25 | > 25 | > 25000 | > 25 | > 25000 | 7190 | > 25000 | > 25000 | > 25000
6 | COc1ccc(-c2nc(N)c3ncn(C4OC(CO)C(O)C4O)c3n2)cc1 (centres undefined) | > 100 | – | > 100 | > 100 | > 100 | – | > 100 | > 100 | – | > 100 | – | > 100 | > 100 | – | > 100 | – | – | – | – | –
7 | O=C1CC2C(=O)C1C(C(=O)O)C2C(=O)O (centres undefined) | > 100 | – | > 100 | > 100 | > 100 | – | > 100 | > 100 | – | > 100 | – | > 100 | > 100 | – | > 100 | – | – | – | – | –
8 | N/C(=N\c1nc2ccccc2s1)NC(=O)Nc1ccccc1Cl | 10.4 | 64.3 | 18.9 | 10.7 | 12 | 167 | > 56.6 | 19.2 | 305 | 18.2 | 179 | 25.1 | 25.3 | 557 | > 100 | 184 | 113 | 127 | 429 | 643
9 | O=C1/C(=C/c2ccccc2)CN(CCC(=O)N2C/C(=C\c3ccccc3)C(=O)/C(=C/c3ccccc3)C2)C/C1=C\c1ccccc1 | 32.9 | 906 | 45.1 | 55.4 | 7.48 | 2600 | > 100 | 41.3 | 11500 | 33.5 | 5400 | > 100 | > 75.2 | 13500 | 75.3 | 9800 | 10700 | 911 | 12700 | 24900
10 | NCC1OC(n2cnc3c(=O)[nH]c(N)nc32)C(O)C1O (centres undefined) | > 100 | – | > 100 | > 100 | > 100 | – | > 100 | > 100 | – | > 100 | – | > 100 | > 100 | – | > 100 | – | – | – | – | –
11 | NC(=O)c1cc(Cl)ccc1NC(=O)c1ccccc1-c1ccccc1 | 17.9 | 550 | > 100 | > 100 | 46.3 | 743 | > 100 | > 100 | 2010 | > 100 | 2810 | > 100 | 11.3 | 1740 | 64.4 | 479 | 1070 | 872 | 18400 | 677
12 | CN(C)CCCN=c1cc2c(=O)n(CCCN(C)C)c(=O)c3c(NCCCN(C)C)cc4c(O)n(CCCN(C)C)c(=O)c1c4c3-2 | 87.4 | 4300 | 46.4 | 5.03 | 16.4 | 7110 | 98.8 | 4.12 | 5390 | 25.5 | 1030 | 11.4 | 6.93 | 2350 | 16.9 | 6360 | 1130 | 2360 | 258 | 1880
13 | O=C1/C(=C/c2ccccc2Br)COc2ccc(O)c(O)c21 | 4.16 | 557 | 3.12 | 21.5 | 4.78 | 504 | 53.4 | 8.19 | 1830 | 4.17 | 1310 | 12.2 | 15 | 2250 | 11.4 | 1550 | 3280 | 1610 | 2750 | 3950
14 | CCC(c1ccc(OC)cc1)C(CC)c1ccc(O)c(CN2CCCC2)c1 (centres undefined) | 5.12 | 3090 | 10.7 | 23.8 | 15.3 | 2540 | 6.77 | 24.7 | 3660 | 15.6 | 3080 | 10.7 | 12.9 | 2100 | 6.4 | 2060 | 5330 | 3720 | 5900 | 3680
